Experiments:
Assay in all cases: relative viability (nuclei count vs DMSO), 5 days (fraction); higher = more cells survive
IU1-47 + Alpelisib = compound: CC1=CC(=C(N1C2=CC=C(C=C2)Cl)C)C(=O)CN3CCCCC3 [IU1-47] + Cc1nc(NC(=O)N2CCC[C@H]2C(N)=O)sc1-c1ccnc(C(C)(C)C(F)(F)F)c1 [Alpelisib] (partner 2 µM)
How it was run: (§1)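 The day after seeding in 1536-well plates, lung cancer cell lines were treated by pin tool with a single drug, or with a fixed anchor-drug dose together with five library-drug doses (not always all listed) in √10 steps. After 5 days, a combined fix-and-stain solution (final 0.05% Triton X-100, 1% formaldehyde, 1 ug/ml Hoechst) was added. Nuclei counted on 4× images gave relative viability as treated counts over vehicle counts, reported as the median of duplicate plates.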

IU1-47 + Pemetrexed = compound: CC1=CC(=C(N1C2=CC=C(C=C2)Cl)C)C(=O)CN3CCCCC3 [IU1-47] + Nc1nc2[nH]cc(CCc3ccc(C(=O)N[C@@H](CCC(=O)O)C(=O)O)cc3)c2c(=O)[nH]1 [Pemetrexed] (partner 0.2 µM)
How it was run: as §1

IU1-47 + Olaparib = compound: CC1=CC(=C(N1C2=CC=C(C=C2)Cl)C)C(=O)CN3CCCCC3 [IU1-47] + O=C(c1cc(Cc2n[nH]c(=O)c3ccccc23)ccc1F)N1CCN(C(=O)C2CC2)CC1 [Olaparib] (partner 8 µM)
How it was run: as §1

FG-4592 + Dasatinib = compound: Cc1nc(C(=O)NCC(=O)O)c(O)c2ccc(Oc3ccccc3)cc12 [FG-4592] + Cc1nc(Nc2ncc(C(=O)Nc3c(C)cccc3Cl)s2)cc(N2CCN(CCO)CC2)n1 [Dasatinib] (partner 0.075 µM)
How it was run: as §1

UMC-11 gave a relative viability (IU1-47 + Alpelisib; first compound 0.08 µM) of 1.09, a relative viability (IU1-47 + Alpelisib; first compound 0.253 µM) of 1.1 and a relative viability (IU1-47 + Alpelisib; first compound 0.8 µM) of 1.02. It also gave a relative viability (IU1-47 + Alpelisib; first compound 2.53 µM) of 1.24, a relative viability (IU1-47 + Alpelisib; first compound 8 µM) of 0.735 and a relative viability (IU1-47 + Pemetrexed; first compound 0.08 µM) of 0.777. It also gave a relative viability (IU1-47 + Pemetrexed; first compound 0.253 µM) of 0.716, a relative viability (IU1-47 + Pemetrexed; first compound 0.8 µM) of 0.811 and a relative viability (IU1-47 + Pemetrexed; first compound 2.53 µM) of 0.903. The relative viability (IU1-47 + Pemetrexed; first compound 8 µM) was 0.796, the relative viability (IU1-47 + Olaparib; first compound 0.08 µM) was 0.402 and the relative viability (IU1-47 + Olaparib; first compound 0.253 µM) was 0.429. The relative viability (IU1-47 + Olaparib; first compound 0.8 µM) was 0.368, the relative viability (IU1-47 + Olaparib; first compound 2.53 µM) was 0.328 and the relative viability (IU1-47 + Olaparib; first compound 8 µM) was 0.373. It also gave a relative viability (FG-4592 + Dasatinib; first compound 0.08 µM) of 0.439, a relative viability (FG-4592 + Dasatinib; first compound 0.253 µM) of 0.46 and a relative viability (FG-4592 + Dasatinib; first compound 0.8 µM) of 0.447. For the same cell line, the relative viability (FG-4592 + Dasatinib; first compound 2.53 µM) was 0.417 and the relative viability (FG-4592 + Dasatinib; first compound 8 µM) was 0.493.

Source: the supplement of paper PMC10307832
